Laboratory results: patent publication US20220288001A1, “CREATINE FOR IMMUNOTHERAPY” (The Regents of the University of California, priority 2019, published 2022)

Experiments:
[1] = test system: skeletal muscle fibers; test: Histological analysis of skeletal muscle (H&E, muscle-fiber diameter); type: in vivo, mouse; details: mice receiving creatine supplements (i.p. or food); biceps femoris
Method: Skeletal muscle (biceps femoris) harvested from control (Ctrl) and experimental (Creatine ip and Creatine food) mice were fixed in 10% neutral-buffered formalin and embedded in paraffin for sectioning (5-μm thickness), followed by H&E staining using standard procedures (UCLA Translational Pathology Core Laboratory). The sections were imaged using an Olympus BX51 upright microscope equipped with a Macrofire® CCD camera (Optronics®). The muscle-fiber diameter was assessed with the use of an ImageJ software (NIH).

[2] = test system: cancer growth; details: early studies (Kristensen et al., 1999; Miller et al., 1993); cited from earlier work
[3] = Creatine quantification in serum after creatine supplementation; type: in vivo, mouse; details: C57BL/6J WT mice, B16-OVA model; i.p. injection or dietary supplementation (0.4 g/kg body weight), both routes
Text: A Creatine Assay Kit (Cat #ab65339, Abcam) was utilized to quantify creatine, both in vivo and in vitro, following the manufacturer's instructions. For the in vivo study, whole blood was collected (retro-orbital bleeding) from the experimental mice in a capillary tube, and the isolated serum was immediately used for the assay following the manufacturer's directions. For the in vitro study, cells were spun to remove culture media and suspended in cold PBS. Creatine was then quantified following the manufacturer's directions. The total amount of creatine detected was then normalized to cell numbers.
For creatine supplementation via i.p. injection, ceatine monohydrate (cat #C3630, Sigma-Aldrich) was dissolved in sterile PBS and i.p. injected to experimental animals daily at a dose of 10.5 mg per animal per injection.
For creatine supplementation via diet, experimental animals were fed a creatine-enriched isocaloric diet which is a customized formulation based on PicoLab Rodent Diet 20 enriched in creatine (3 g/Kg diet, cat #TD.170082, Envigo Teklad Diet). The diet was designed to reflect the safe daily dose of creatine recommended for enhanced athletic performance in humans (Mayo Clinic data). Non-treated mice (Ctrl) were fed a control diet prepared in a manner similar to that of the creatine-enriched diet.

[4] = test system: tumor-infiltrating CD8 T cells; test: Flow cytometry phenotype of tumor-infiltrating CD8 T cells in B16-OVA model; type: in vivo, mouse; details: B16-OVA tumors collected day 17; creatine supplementation
Text: Fluorochrome-conjugated monoclonal antibodies specific for mouse CD45.2 (cat #109820; clone 104), TCRβ (cat #109220; clone H57-597), CD4 (cat #100531; clone RM4-5), IFN-γ (cat #505806; clone XMG1.2), Granzyme B (cat #372208; clone QA16A02). TCR Vα2 (cat #127809; clone B20.1), CD69 (cat #104508; clone H1.2F3), CD25 (cat #102006; clone PC61), CD8 (cat #100732: clone 53-6.7), CD44 (cat #103030; clone IM7), LAG-3 (CD223) (cat #125207; clone C9B7W), and Tim-3 (CD366) (cat #119705; clone RMT3-23) were purchased from BioLegend. […] Stained cells were analyzed using a MACSQuant Analyzer 10 Flow Cytometer (Miltenyi Biotee). […] To assess gene expression, CD45^+ immune cells were sorted from TIIs using flow cytometry then analyzed for CrT mRNA expression using qPCR. To assess T cell activation status, TIIs were analyzed for surface activation marker (CD25 and PD-1) expression using flow cytometry. […] TIIs were analyzed for intracellular Granzyme B expression using flow cytometry. To assess T cell cytokine production, Tis were stimulated with PMA (50 ng/ml)+Ionomycine (500 ng/ml) in the presence of GolgiStop (4 μl per 6 ml culture) for 4 hours, then analyzed for intracellular cytokine (IL-2 and IFN-γ) production using flow cytometry. […]

[5] = humans (Kreider et al., 2017); cited from earlier work
[6] = test system: B16-OVA tumors; test: B16-OVA tumors in immunodeficient NSG mice, creatine supplementation; type: in vivo, mouse; details: i.p. creatine

CN(CC(=O)O)C(=N)N [creatine]
skeletal muscle fiber size [1]: enlargement of skeletal muscle fibers | direct inhibition of cancer growth [2]: could directly inhibit cancer growth | creatine concentrations in blood (serum) [3]: elevated creatine concentrations in blood to a similar level | “exhaustion-prone” phenotype cells (PD-1hiCD62Llo) among tumor-infiltrating CD8 T cells [4]: significant reduction | safety of long-term supplementation [5]: well-documented safety | tumor growth [6]: could not be suppressed
